Test results from PMC2932887 (Journal of medicinal chemistry, 2010).
Like-named read-outs stand apart in the source and are kept apart here.

Columns and labels:
[1] = molecular target: T1, recombinant rat NAAA (Rattus norvegicus, UniProt Q5KTC7); assay: NAAA assay: inhibition of heptadecenoylethanolamide hydrolysis; assay type: biochemical; conditions: for NAAA inhibitory activity (in words): recombinant rat NAAA
T1 sequence (Q5KTC7 131-362 limits assumed): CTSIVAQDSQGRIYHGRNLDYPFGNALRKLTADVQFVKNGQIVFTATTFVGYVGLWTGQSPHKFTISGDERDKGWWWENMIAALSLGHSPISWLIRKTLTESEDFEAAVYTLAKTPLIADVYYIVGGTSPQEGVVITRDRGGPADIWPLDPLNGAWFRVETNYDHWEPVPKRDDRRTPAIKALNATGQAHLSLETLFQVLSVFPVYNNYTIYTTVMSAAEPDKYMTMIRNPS
T1 sequence (Q5KTC7 34-130 partner limits assumed): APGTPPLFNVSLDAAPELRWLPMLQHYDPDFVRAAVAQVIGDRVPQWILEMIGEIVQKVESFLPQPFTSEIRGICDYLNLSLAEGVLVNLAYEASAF

[2] = molecular target: T1, recombinant rat NAAA; conditions: intracellular NAAA activity; cited from earlier work
[3] = system: FAAH; conditions: cited from earlier work
[4] = system: monoacylglycerol lipase; conditions: cited from earlier work
[5] = system: diacylglycerol lipase type-α; conditions: cited from earlier work
[6] = molecular target: T2, Recombinant NAAA expressed in HEK-293 Cells (Rattus norvegicus, UniProt Q5KTC7); assay: Michaelis-Menten analysis of NAAA in presence of inhibitor; assay type: biochemical
T2 sequence (Q5KTC7 131-362 limits assumed): T1 sequence (Q5KTC7 131-362 limits assumed)
T2 sequence (Q5KTC7 34-130 partner limits assumed): T1 sequence (Q5KTC7 34-130 partner limits assumed)

Compound: O=C1OCC1CCCCc1ccccc1 (racemic) [compound 23, rac-3-(4-Phenylbutyl)oxetan-2-one]
- NAAA inhibitory activity (in words) [1]: low potency

Compound: O=C(CCc1ccccc1)N[C@H]1COC1=O [7a, (S)-N-(2-Oxo-3-oxetanyl)-3-phenylpropionamide]
- mechanism of NAAA inhibition [2]: non-competitive
- inhibition of FAAH [3]: no inhibition
- inhibition of monoacylglycerol lipase [4]: no inhibition
- inhibition of diacylglycerol lipase type-α [5]: no inhibition

Compound: O=C(N[C@H]1COC1=O)c1ccc(-c2ccccc2)cc1 [7h, (S)-N-(2-Oxo-3-oxetanyl)biphenyl-4-carboxamide]
- mechanism of NAAA inhibition ([1]; preincubation time-course, Michaelis-Menten analysis, overnight dialysis): rapid, noncompetitive and reversible
- Vmax ([6]; 100 nM inhibitor): 10.8 ± 2.5 nmol/min/mg
- Vmax ([6]; 200 nM inhibitor): 6.2 ± 0.2 nmol/min/mg

Compound: O=C(CCc1ccccc1)N[C@H]1CCOC1=O [11a, (S)-N-(2-Oxotetrahydrofuran-3-yl)-3-phenylpropionamide]
- NAAA inhibitory activity (in words) [1]: entirely devoid of inhibitory activity

Compound: O=C(N[C@H]1CCOC1=O)c1ccc2ccccc2c1 [11j, (S)-N-(2-Oxotetrahydrofuran-3-yl)-2-naphthamide]
- NAAA inhibitory activity (in words) [1]: inactivity

Compound: C[C@H]1OC(=O)[C@H]1NC(=O)CCc1ccccc1 [20a, (2R,3S)-N-(2-Methyl-4-oxo-3-oxetanyl)-3-phenylpropionamide]
- NAAA inhibitory activity (in words) [1]: complete loss of activity

Compound: O=C(CCc1ccccc1)N[C@@H](CO)C(=O)O [compound 10, (S)-3-Hydroxy-2-(3-Phenylpropionylamino)propionic Acid]
- NAAA inhibitory activity (in words) [1]: entirely devoid of inhibitory activity

Compound: O=C(CCc1ccccc1)NC1CCC1 [compound 12, N-Cyclobutyl-3-phenylpropionamide]
- NAAA inhibitory activity (in words) [1]: entirely devoid of inhibitory activity

Compound: O=C(CCc1ccccc1)NC1CCC1=O (centres unmarked) [compound 15, N-(2-Oxocyclobutyl)-3-phenylpropionamide]
- NAAA inhibitory activity (in words) [1]: entirely devoid of inhibitory activity
